A short description of one data set: in vivo. The note with it: rat, po. An excerpt:
ALZ-801 is a valine conjugate of tramiprosate that has been optimized for improved pharmacokinetic properties and gastrointestinal tolerability. Chronic toxicology studies required for the advancement of ALZ-801 to Phase 3 have been completed, including the nonclinical safety characterization of ALZ-801, and the safety bridge to the extensive nonclinical toxicology and safety data for tramiprosate. […] See Hey et al., Clinical Pharmacokinetics and Safety of ALZ-801, a Novel Prodrug of Tramiprosate in Development for the Treatment of Alzheimer's Disease. Clin Pharmacokinetics 2018; 315-333 and Kocis et al., Elucidating the Abeta42 Anti-Aggregation Mechanism of Action of Tramiprosate in Alzheimer's Disease: Integrating Molecular Analytical Methods. Pharmacokinetic and Clinical Data. CNS Drugs 2017; 31:495-509. […] Both ALZ-801 and tramiprosate have consistent elimination half-life in plasma across species following repeated oral doses of ALZ-801, indicating no potential for accumulation after chronic dosing. Following conversion of ALZ-801 to tramiprosate, tramiprosate is consistently metabolized in vivo into a single major metabolite, 3-sulfopropanoic acid (3-SPA), in humans, mice, rats, dogs and minipigs.

The target of data set [1] is T1, recombinant human Aβ42 peptide (Homo sapiens, UniProt P05067).
T1 construct: recombinant human Aβ42 peptide; purchased BioLegend 843801
Briefly: Ion mobility mass spectrometry (IMS MS) anti-Aβ42 oligomer activity / binding study. The format is biochemical. Also on record: key to Presence of Aβ42 Pentamer / Presence of Aβ42 Hexamer / Presence of Aβ42 Decamer / Presence of Aβ42 Dimer / Presence of Aβ42 Trimer / Presence of Aβ42 Tetramer: Y = yes, presence of oligomer species; N = no presence of oligomer species. The method, then:
The conditions used for mass spectrometry, using a Waters Synapt G2-S, were as follows: positive polarity in sensitivity mode, capillary=2.5 kV, nebulizer=2 mbar, source temperature=80° C., desolvation temperature=60° C., sample cone setting=35 V, source offset setting=60 V, and mass range=500 to 4000 m/z. These conditions were maintained throughout the study to ensure consistency of the data and to avoid influencing the detection of oligomers due to preferential ionization conditions.
Samples were directly infused into the mass spectrometer at a flow rate of 10 μL/min using a Protea PM-1000 Syringe Pump and Hamilton 1 mL Syringe. The data acquisition of the amyloid peptide was performed using a Waters Synapt G2-S quadrupole time of flight mass spectrometer (Q-TOF MS) with traveling wave ion mobility (Waters Corp., Milford, MA). The data were acquired using the systems sensitivity mode to allow for the detection of the less abundant oligomers. Samples were infused at room temperature. The IMS MS studies were conducted at Protea, Inc. (Morgantown, WV).
1 mg of recombinant human Aβ42 peptide from BioLegend (99% purity, cat #843801) was reconstituted in 200 μL of Fisher Optima LC/MS grade water (cat #W6-1) and vortexed vigorously for 2 minutes to solubilize the peptide creating a 5 mg/mL solution. Samples were then diluted to a final concentration of 22 pmol/μL prior to incubation. The sample mixtures were then incubated at room temperature for 0, 4 and 24 hours. After the acquisition of incubated samples was completed, the raw data were analyzed using the Waters MassLynx v2.4 suite with DriftScover v2.7 to visualize drift times for the peptide.
Aβ42 species characterization using IMS MS was performed by direct infusion at 22 pmol/μL in water. The peptide was prepared in water to maintain the native state conformation of the peptide and ion mobility data acquisition was performed to detect and characterize the conformational changes of the native state monomer and any oligomers that may have formed during the incubation.
The data acquisition for Aβ42 peptide was performed using a Waters Synapt G2-S quadrupole time of flight mass spectrometer (Q-TOF MS) with traveling wave ion mobility (Waters Corp., Milford, MA). The data were acquired using the systems sensitivity mode to allow for the detection of the less abundant oligomers. Samples were infused at room temperature as above.
1 mg of 3-SPA was reconstituted in 1 mL of Fisher Optima LC/MS grade water (cat #W6-1) and vortexed vigorously for 2 minutes until completely dissolved. The sample was then diluted to create […], and 22,000 pmol/μL solutions to perform a 100-fold, and 1,000-fold molar excess for the binding experiments with Aβ42 peptide.
1 mg of recombinant human Aβ42 peptide was reconstituted in 200 μL of Fisher Optima LC/MS grade water and vortexed vigorously to solubilize to a 5 mg/mL solution. Samples were then diluted to their final concentrations prior to incubation. The sample mixtures were incubated at room temperature for 0, 4 and 24 hours, followed by analysis as described above.
To address the high conformational flexibility of Aβ42 and to characterize its interaction with 3-SPA, we used ion mobility mass spectrometry (IMS), with a quadrupole time of flight mass spectrometer (Q-TOF MS) with traveling wave ion mobility. Resulting effect of modulation of Aβ conformational space is the prevention of oligomer formation. We have found not only concentration dependency but also time-dependency of this anti-Aβ42 oligomeric effect of 3-SPA as indicated in FIG. 3 and FIG. 4. 100- vs 1,000-fold molar excess of 3-SPA over Aβ42 results in a different sub-species profile of inhibition of Aβ42 oligomer formation. The activity is also compared with the same excess dependency of tramiprosate.

For data set [2] the following is noted: cited from earlier work.
Setting [3] is: 100:1 excess ratio compound:protein.
[4] abbreviates: 1000:1 excess ratio compound:protein.

T1 sequence (P05067 672-713 limits assumed): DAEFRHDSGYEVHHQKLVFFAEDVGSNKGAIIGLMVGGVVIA

One may read the NOAEL as the highest tested level that showed no adverse finding. For the compound `CC(C)[C@H](N)C(=O)NCCCS(=O)(=O)O` [ALZ-801], in the data set “in vivo”, the NOAEL at 1 month was determined as 2000 mg/kg, the NOAEL at 6 month was determined as 1500 mg/kg and the “Tolerability (in words)” value was “well tolerated”.
In the case of `NCCCS(=O)(=O)O` [Tramiprosate, 3-amino-1-propanesulfonic acid, reference compound], in data set [1] (setting [3]), the “Presence of Aβ42 Decamer” value is on record as “N”, the “Presence of Aβ42 Dimer” value was “N”, the “Presence of Aβ42 Hexamer” value is “Y” and the “Presence of Aβ42 Pentamer” value is on record as “Y”. Besides, in data set [1] (setting [3]), the “Presence of Aβ42 Tetramer” value is given as “Y” and the “Presence of Aβ42 Trimer” value is given as “Y”. Moreover, in data set [1] (setting [4]), the “Presence of Aβ42 Decamer” value is “N”, the “Presence of Aβ42 Dimer” value was “N”, the “Presence of Aβ42 Hexamer” value was “N” and the “Presence of Aβ42 Pentamer” value is reported as “N”. For the same compound, in data set [1] (setting [4]), the “Presence of Aβ42 Tetramer” value is listed as “N” and the “Presence of Aβ42 Trimer” value is on record as “N”. For the same compound, in data set [1] (24 hours incubation, 1,000-fold excess), the “Inhibition of formation of Aβ42 oligomers (in words)” value was “complete inhibition of formation of Aβ42 oligomers”. In addition, in data set [2] (Phase 3 trials and safety extension, exposures of up to 2.5 years), the “Safety profile (in words)” value is reported as “favorable safety profile”. Also, the “Effect on cognition (in words)” value in data set [2] (subgroup analysis of subjects with the ε4 allele of APOE (APOE4)) was “positive and clinically meaningful benefit on cognition”.

The values are drawn from US12083082B2, “Methods for treating neurodegenerative disorders” (Alzheon, Inc., priority 2018, dated 2024).
